Assay results as given in PMC3307802 (MedChemComm, 2011).

Columns and labels:
[1] = target: T1, KOP receptors (Homo sapiens, UniProt P41145); settings: cited from earlier work
[2] = system: humans; settings: vaporized and inhaled; cited from earlier work
[3] = system: serotonin 5HT2A receptors; settings: cited from earlier work
[4] = system: cocaine-induced drug-seeking; settings: rats; dose of 0.3 mg/kg or greater; cited from earlier work
[5] = target: T1, KOP receptors; experiment: biochemical; assay type: biochemical
[6] = system: KOP receptor; settings: cited from earlier work
[7] = target: KOP receptor; settings: cited from earlier work; remark: listed apart in the source
[8] = target: T1, KOP receptors; assay type: binding
[9] = system: KOP receptor; experiment: Previously published potency/efficacy at KOP receptors; assay type: biochemical; settings: relative to 1

T1 sequence (P41145 whole entry): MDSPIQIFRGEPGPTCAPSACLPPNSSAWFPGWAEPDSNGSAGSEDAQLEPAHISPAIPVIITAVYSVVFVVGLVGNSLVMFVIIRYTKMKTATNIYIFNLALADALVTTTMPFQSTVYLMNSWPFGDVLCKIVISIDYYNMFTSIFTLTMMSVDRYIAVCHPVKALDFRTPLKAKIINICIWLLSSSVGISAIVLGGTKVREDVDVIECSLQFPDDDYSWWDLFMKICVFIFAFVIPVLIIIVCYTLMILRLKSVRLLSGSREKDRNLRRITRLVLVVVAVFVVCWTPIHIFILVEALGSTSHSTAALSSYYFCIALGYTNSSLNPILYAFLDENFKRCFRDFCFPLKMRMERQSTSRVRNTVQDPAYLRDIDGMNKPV

## COC(=O)[C@@H]1C[C@H](OC(C)=O)C(=O)[C@H]2[C@@]1(C)CC[C@H]1C(=O)O[C@H](c3ccoc3)C[C@]21C [Compound 1, salvinorin A]
[1]
  ED50 ± SD (κ): 0.04 ± 0.01 µM
[2]
  active dose in humans (hallucinogen): 4.5 to 21 µg/kg
[3]
  activity at serotonin 5HT2A receptors: does not have activity
[4]
  effect on cocaine-primed reinstatement of drug seeking: attenuate cocaine-primed reinstatement of drug seeking

## CCOCO[C@H]1C[C@@H](C(=O)OC)[C@]2(C)CC[C@H]3C(=O)O[C@H](c4ccoc4)C[C@]3(C)[C@H]2C1=O [Compound 4]
[5]
  EC50: 0.00065 ± 0.00017 µM

## COC(=O)[C@@H]1C[C@H](O[C@@H]2CCCCO2)C(=O)[C@H]2[C@@]1(C)CC[C@H]1C(=O)O[C@H](c3ccoc3)C[C@]21C [Compound 5]
[5]
  EC50: 0.06 ± 0.006 µM

## COC(=O)[C@@H]1C[C@H](O[C@@H]2CCCO2)C(=O)[C@H]2[C@@]1(C)CC[C@H]1C(=O)O[C@H](c3ccoc3)C[C@]21C [Compound 7a]
[5]
  EC50: 1.22 ± 0.23 µM
  fold less potent than 1 as agonist: approximately 30 fold

## COC(=O)[C@@H]1C[C@H](O[C@H]2CCCO2)C(=O)[C@H]2[C@@]1(C)CC[C@H]1C(=O)O[C@H](c3ccoc3)C[C@]21C [Compound 7b]
[5]
  EC50: 0.69 ± 0.08 µM
  fold less potent than 1 as agonist: ~17 fold

## CCOC(=O)O[C@H]1C[C@@H](C(=O)OC)[C@]2(C)CC[C@H]3C(=O)O[C@H](c4ccoc4)C[C@]3(C)[C@H]2C1=O [Compound 11]
[6]; vs. [3H]bremazocine
  affinity at the KOP receptor vs. [3H]bremazocine: no appreciable affinity
[6]; vs. [3H]diprenorphine
  affinity at the KOP receptor vs. [3H]diprenorphine: no appreciable affinity

## CCNC(=O)O[C@H]1C[C@@H](C(=O)OC)[C@]2(C)CC[C@H]3C(=O)O[C@H](c4ccoc4)C[C@]3(C)[C@H]2C1=O [Compound 12]
[7]; read-out: KOP receptor potency EC50
  EC50: > 1 µM

## COCO[C@H]1C[C@@H](C(=O)OC)[C@]2(C)CC[C@H]3C(=O)O[C@H](C(=O)N4CCCCC4)C[C@]3(C)[C@H]2C1=O [Compound 14]
[5]
  EC50: 1.93 ± 0.239 µM
  fold less potent than 1 as agonist: 48 fold
  fold less potent than 3 as agonist: roughly 322 fold
  improvement in potency over 15: approximately 2.5 fold
[8]
  KOP binding affinity worse compared to 3: roughly 31 fold
  KOP receptor binding affinity improved over that of 15: approximately 2 fold

## COC(=O)[C@@H]1C[C@H](OC(C)=O)C(=O)[C@H]2[C@@]1(C)CC[C@H]1C(=O)O[C@H](C(=O)N3CCCCC3)C[C@]21C [Compound 15, reference compound]
[9]
  fold less potent than 1 as agonist (previously published analog): approximately 125 fold
[7]
  potency at KOP receptors ED50: 5.11 ± 1.8 µM
